From patent US20150148311A1, “NON-SYSTEMIC TGR5 AGONISTS” (Ardelyx, Inc., priority 2011, published 2015) come the findings set out here.

Where two headings read alike, the source gives them in different places.

A short description of data set [1]: Compound concentration in gall bladder, LC-MS/MS, 8 h post dose. In kind it is in vivo. The note with it: 30 mg/kg; for Number of Mice with Gallbladder Concentration < LLOQ: mice below LLOQ / mice in group; for concentration at 8 h: male, C57BL/6, mouse, with contents, mice, gallbladder homogenate, read-out: Mean Example Gallbladder Concentration. The protocol:
(§1) Eight hours later, each mouse was heavily anesthetized with isoflurane, the peritoneal cavity was opened and the gallbladder, with its entire contents, was carefully excised and weighed. Blood was collected from the left ventricle of the heart and processed to plasma in EDTA-coated tubes containing aprotinin and DPPIV inhibitor for measurement of total GLP-1 (K150FCC; Meso Scales Discovery, Gaithersburg Md.).
Compound concentrations in the gall bladder were determined as follows: each mouse was heavily anesthetized with isoflurane, the peritoneal cavity was opened and the gallbladder, with its entire contents, was carefully excised. After harvest, gall bladders were homogenized in 100 μL water using a micro-homogenizer. Samples of homogenate were diluted 1:5 in water and precipitated with three volumes of neat acetonitrile. After centrifugation, supernatants were analyzed by LC-MS/MS. The level of test compound present in gall bladder samples was interpolated from a standard curve for each individual compound prepared in a matrix of gallbladder homogenate from vehicle treated animals.

The nature of data set [2]: Compound plasma concentration, LC-MS/MS, 8 h post dose. To be noted: 30 mg/kg; for Number of Mice with Plasma Concentration < LLOQ: mice below LLOQ / mice in group; for concentration at 8 h: male, C57BL/6, mouse, mice, plasma, read-out: Mean Example Plasma Concentration. In kind it is in vivo. The protocol: as §1
Plasma samples were treated with acetonitrile containing an internal standard, precipitated proteins removed by centrifugation. Supernatants were analyzed by LC-MS/MS and compound concentrations were determined by interpolated from a standard curve prepared in plasma.

In a further data set the target is T1, human IBAT (Homo sapiens, UniProt Q12908).
T1 construct: expressed in transfected cells; host or cells: HEK293
T1 sequence (Q12908 1-348): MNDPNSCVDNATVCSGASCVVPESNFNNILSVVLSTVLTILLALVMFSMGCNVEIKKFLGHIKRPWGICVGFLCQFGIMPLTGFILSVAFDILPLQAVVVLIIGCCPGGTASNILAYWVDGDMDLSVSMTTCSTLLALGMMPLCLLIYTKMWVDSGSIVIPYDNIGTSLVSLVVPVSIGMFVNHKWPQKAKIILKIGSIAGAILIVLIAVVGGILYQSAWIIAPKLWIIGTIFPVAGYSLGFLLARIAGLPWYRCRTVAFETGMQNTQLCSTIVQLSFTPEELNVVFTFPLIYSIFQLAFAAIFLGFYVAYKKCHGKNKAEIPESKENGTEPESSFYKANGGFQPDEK
In words: IBAT counter screen, [3H]taurocholic acid uptake in IBAT-transfected HEK293 cells. In kind it is cell-based. To be noted: read-out: pEC50 human IBAT (converted). The protocol:
Following a 40-min incubation, the solution was removed, and the cells were washed twice with uptake buffer. Cells were lysed by addition of 20 μL 0.1% Tween 80 followed by 100 μL scintillation fluid and counted using a TopCount (Perkin Elmer).

The target in the next data set is T2, human TGR5 (Homo sapiens, UniProt Q8TDU6).
T2 construct: expressed in transfected cells
T2 sequence (Q8TDU6 1-330): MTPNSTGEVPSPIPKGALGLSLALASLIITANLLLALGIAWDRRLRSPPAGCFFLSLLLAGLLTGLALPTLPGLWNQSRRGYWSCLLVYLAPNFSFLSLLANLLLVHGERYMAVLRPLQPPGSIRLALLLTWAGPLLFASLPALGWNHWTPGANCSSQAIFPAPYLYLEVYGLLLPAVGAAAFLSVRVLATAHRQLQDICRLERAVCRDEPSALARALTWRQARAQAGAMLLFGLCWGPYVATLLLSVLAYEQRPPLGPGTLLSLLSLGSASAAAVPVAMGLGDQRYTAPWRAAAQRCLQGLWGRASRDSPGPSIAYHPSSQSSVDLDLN
The experiment in a line: Cell-based TGR5 assay, HEK293 cells stably expressing human TGR5, cAMP by HTRF. The note with it: 0.05 nM to 10 μM. A digest of the protocol:
(§2)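 cAMP HTRF read-out, converted to concentration via standard curve, after a 30 min, 37 °C compound exposure in HBSS with 10 mM HEPES pH 7.4 and 0.5 mM IBMX, compounds serially diluted 3-fold from 10 mM DMSO stock then 100-fold. Cells: stable human TGR5 HEK293, or NCI-H716 expressing TGR5 endogenously.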

The target in data set [3] is T3, endogenously expressed TGR5 in NCI H716 (Homo sapiens, UniProt Q8TDU6).
T3 construct: human caecum carcinoma cell line NCI-H716 which endogenously expresses human TGR5; endogenous in cells; host or cells: NCI-H716
T3 sequence (Q8TDU6 1-330): T2 sequence (Q8TDU6 1-330)
In words: Cell-based TGR5 assay, NCI-H716 cells endogenously expressing human TGR5, cAMP by HTRF. To be noted: 30 min at 37 C, 22 nM to 50 μM, read-out: pEC50 endogenously expressed TGR5 in NCI H716 (converted). The method in brief:
as §2

Setting [4] is: pEC50 Human TGR5, HEK293 cells stably expressing human TGR5, 30 min at 37 C.
The mark [5] stands for this setting: HEK293 cells stably expressing human TGR5, 30 min at 37 C, read-out: pEC50 Human TGR5 (converted).

For the compound `O=C(CCc1cc(Cl)c(CN2CSC[C@H]2C(=O)N2CCN(C3CC3)c3ccccc32)cc1Cl)NC[C@H](O)[C@@H](O)C(O)[C@H](O)CO` (stereo in doubt) [Example 97, 3-(2,5-dichloro-4-(((R)-4-(4-cyclopropyl-1,2,3,4-tetrahydroquinoxaline-1-carbonyl)thiazolidin-3-yl)methyl)phenyl)-N-((2S,3R,4R,5R)-2,3,4,5,6-pentahydroxyhexyl)propanamide], in data set [1], the “Number of Mice with Gallbladder Concentration < LLOQ” value is reported as 0/8 and the concentration at 8 h amounted to 520 nM. For the same compound, in data set [2], the “Number of Mice with Plasma Concentration < LLOQ” value is reported as 7/8.
Take `O=C([C@@H]1C[C@@H](O)CN1Cc1cc(Cl)ccc1Cl)N1CCN(C2CC2)c2ccccc21` [Example 2, (4-cyclopropyl-3,4-dihydroquinoxalin-1(2H)-yl)((2S,4R)-1-(2,5-dichlorobenzyl)-4-hydroxypyrrolidin-2-yl)methanone]: the EC50 at human IBAT is more than 25100 nM.
Consider `O=C([C@@H]1C[C@H](F)CN1Cc1cc(Cl)ccc1Cl)N1CCN(C2CC2)c2ccccc21` [Example 3, (4-cyclopropyl-3,4-dihydroquinoxalin-1(2H)-yl)((2S,4S)-1-(2,5-dichlorobenzyl)-4-fluoropyrrolidin-2-yl)methanone], for which the EC50 at human IBAT was more than 25100 nM.
On to `O=C([C@@H]1C[C@H](O)CN1Cc1cc(Cl)ccc1Cl)N1CCN(C2CC2)c2ccccc21` [Example 6, (4-cyclopropyl-3,4-dihydroquinoxalin-1(2H)-yl)((2S,4S)-1-(2,5-dichlorobenzyl)-4-hydroxypyrrolidin-2-yl)methanone], for which, at human IBAT, the EC50 was more than 25100 nM.
As to `CN(C[C@H](O)[C@@H](O)[C@@H](O)[C@H](O)CO)C(=O)CCc1cc(Cl)c(CN2CSC[C@H]2C(=O)N2CCN(C3CC3)c3ccccc32)cc1Cl` [Example 98, 3-(2,5-dichloro-4-(((R)-4-(4-cyclopropyl-1,2,3,4-tetrahydroquinoxaline-1-carbonyl)thiazolidin-3-yl)methyl)phenyl)-N-methyl-N-((2S,3R,4S,5R)-2,3,4,5,6-pentahydroxyhexyl)propanamide], the “Number of Mice with Gallbladder Concentration < LLOQ” value in data set [1] was 0/8. In addition, the “Number of Mice with Plasma Concentration < LLOQ” value in data set [2] was 4/8.
Take `O=C(NCCCCc1cc(Cl)c(CN2CSC[C@H]2C(=O)N2CCN(C3CC3)c3ccccc32)cc1Cl)NC[C@@H](O)[C@H](O)[C@@H](O)[C@@H](O)CO` [Example 177, 1-(4-(2,5-dichloro-4-(((R)-4-(4-cyclopropyl-1,2,3,4-tetrahydroquinoxaline-1-carbonyl)thiazolidin-3-yl)methyl)phenyl)butyl)-3-((2R,3S,4S,5S)-2,3,4,5,6-pentahydroxyhexyl)urea]: in data set [1], the concentration at 8 h was 100 nM.
Turning to `CN(C[C@@H](O)[C@H](O)[C@@H](O)[C@@H](O)CO)C(=O)NCCCCc1cc(Cl)c(CN2CSC[C@H]2C(=O)N2CCN(C3CC3)c3ccccc32)cc1Cl` [Example 208], in data set [1], the “Number of Mice with Gallbladder Concentration < LLOQ” value is on record as 0/7. In data set [2], the “Number of Mice with Plasma Concentration < LLOQ” value is on record as 7/7 and the concentration at 8 h is less than 0.5 ng/mL.
For the compound `C[C@@H](NC(=O)[C@@H](C)NC(=O)[C@@H](C)NC(=O)CCCCc1cc(Cl)c(CN2CSC[C@H]2C(=O)N2CCN(C3CC3)c3ccccc32)cc1Cl)C(=O)O` [Example 227], the EC50 at human TGR5 (setting [4]) is less than 100 nM. Besides, in data set [1], the “Number of Mice with Gallbladder Concentration < LLOQ” value is on record as 0/7 and the concentration at 8 h was 1730 nM. In data set [2], the “Number of Mice with Plasma Concentration < LLOQ” value is recorded as 7/8 and the concentration at 8 h is 0.6 ng/mL.
With `CN(C[C@H](O)[C@@H](O)[C@H](O)[C@H](O)CO)C(=O)CCc1cc(Cl)c(CN2CSC[C@H]2C(=O)N2CCN(C3CC3)c3ccccc32)cc1Cl` [Example 237], in data set [1], the “Number of Mice with Gallbladder Concentration < LLOQ” value is listed as 1/8. In data set [2], the “Number of Mice with Plasma Concentration < LLOQ” value is 7/8.
With `CN(C[C@H](O)[C@@H](O)[C@@H](O)[C@H](O)CO)C(=O)CCCCc1cc(Cl)c(CN2CSC[C@H]2C(=O)N2CCN(C3CC3)c3ccccc32)cc1Cl` [Example 239], in data set [1], the “Number of Mice with Gallbladder Concentration < LLOQ” value is 8/8 and the concentration at 8 h is less than 3 nM. In data set [2], the “Number of Mice with Plasma Concentration < LLOQ” value is 6/8 and the concentration at 8 h stood at 2 ng/mL.
On to `O=C(N1CCN(C2CC2)c2ccccc21)C1(OCc2cc(Cl)cc(OC(F)(F)F)c2)CC1` [Example 248], for which the EC50 (on human TGR5 (setting [5]); in data set [3]) was 1260 to 50100 nM throughout.
For the compound `Cc1ccc(Cl)c(COC2(C(=O)N3CCN(C4CC4)c4ccccc43)CC2)c1F` [Example 249], the EC50 (at human TGR5 (setting [5]); in data set [3]) was 1260 to 50100 nM throughout.
As for `O=C(N1CCN(C2CC2)c2ccccc21)C1(NCc2cc(Cl)ccc2C(F)(F)F)CC1` [Example 254], the EC50 (at human TGR5 (setting [5]); in data set [3]) was less than 100 nM each time.
Take `O=C(N1CCN(C2CC2)c2ccccc21)C1(NCc2cc(C(F)(F)F)ccc2Cl)CC1` [Example 255]: the EC50 (on human TGR5 (setting [5]); in data set [3]) was less than 100 nM in each case.
Turning to `COc1cc(Cl)c(CNC2(C(=O)N3CCN(C4CC4)c4ccccc43)CC2)cc1Cl` [Example 256], the EC50 (at human TGR5 (setting [5]); in data set [3]) was 126 to 1000 nM in each case.
As to `CN(C(=O)C1(OCc2cc(Cl)c(CCCCNC(=O)NC[C@H](O)[C@@H](O)[C@H](O)[C@H](O)CO)cc2Cl)CC1)c1ccccc1OC1CC1` [Example 257], the EC50 at human TGR5 (setting [5]) is less than 100 nM; in data set [3] it was 126 to 1000 nM.
Take `O=C([C@@H]1SCCN1Cc1cc(Cl)ccc1C(F)(F)F)N1CCN(C2CC2)c2ccccc21` [Example 268]: the EC50 was less than 100 nM on human TGR5 (setting [5]) and 126 to 1000 nM in data set [3].
As for `O=C(O)CN(CCCCCc1cc(Cl)c(CN2CSC[C@H]2C(=O)N2CCN(C3CC3)c3ccccc32)cc1Cl)CC(=O)O` [Example 276], the concentration at 8 h in data set [2] is 7.6 ng/mL.
On to `CN(C[C@H](O)[C@@H](O)[C@H](O)[C@H](O)CO)C(=O)CC[C@H](NC(=O)CCCCc1cc(Cl)c(CN2CSC[C@H]2C(=O)N2CCN(C3CC3)c3ccccc32)cc1Cl)C(=O)O` [Example 278], for which the EC50 on human TGR5 (setting [4]) was in the range of 126 to 1000 nM. In data set [1], the “Number of Mice with Gallbladder Concentration < LLOQ” value was 0/8 and the concentration at 8 h was found to be 3100 nM. Also, in data set [2], the “Number of Mice with Plasma Concentration < LLOQ” value was 5/8 and the concentration at 8 h stood at 2.3 ng/mL.
`O=C(NCCCCCc1cc(Cl)c(CN2CSC[C@H]2C(=O)N2CCN(C3CC3)c3ccccc32)cc1Cl)N1CCN(CP(=O)(O)O)CC1` [Example 282] yielded an EC50 at human TGR5 (setting [4]) of less than 100 nM. In data set [1], the “Number of Mice with Gallbladder Concentration < LLOQ” value was 0/7 and the concentration at 8 h is 80 nM. Moreover, in data set [2], the “Number of Mice with Plasma Concentration < LLOQ” value is listed as 0/8 and the concentration at 8 h came out at 2.8 ng/mL.
The corresponding values for `O=C(NCCCCCc1cc(Cl)c(CN2CSC[C@H]2C(=O)N2CCN(C3CC3)c3ccccc32)cc1Cl)NCP(=O)(O)O` [Example 283] are 126 to 1000 nM, 0/8, 3060 nM, 7/8 and 24.8 ng/mL.
As to `O=C(NC[C@H](O)[C@@H](O)[C@H](O)[C@H](O)CO)c1ccc(OCc2cc(Cl)c(CN3CSC[C@H]3C(=O)N3CCN(C4CC4)c4ccccc43)cc2Cl)nc1` [Example 285], in data set [1], the “Number of Mice with Gallbladder Concentration < LLOQ” value is 0/8. Further, the “Number of Mice with Plasma Concentration < LLOQ” value in data set [2] is 2/8.
